The record followed here is US12059420B2 (BRISTOL-MYERS SQUIBB COMPANY, priority 2018, dated 2024).

This experiment concerns the target T1, human IDO1 (Homo sapiens, UniProt P14902).
T1 construct: expressed in transfected cells
The experiment can be described thus: IDO inhibition assay in HEK293 cells stably expressing human IDO1 (kynurenine production, Ehrlich reagent, absorbance 490 nm). In kind it is cell-based. Conditions: 20 hours incubation with compound, 500 nM reference standard = 100% inhibition, read-out: IDO1 HEK Human IC50. The method, boiled down:
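HEK293 clones stably expressing human IDO1 (10,000 cells/well, phenol red-free RPMI, 10% FBS) were treated with compound for 20 hours at 37° C. After 0.2% TCA and 30 min at 50° C., kynurenine was read with Ehrlich reagent at 490 nm. IC50 was normalised to DMSO (0%) and 500 nM reference standard (100%).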

The term IC50 denotes the concentration that gives 50% inhibition.

T1 sequence (P14902 whole entry): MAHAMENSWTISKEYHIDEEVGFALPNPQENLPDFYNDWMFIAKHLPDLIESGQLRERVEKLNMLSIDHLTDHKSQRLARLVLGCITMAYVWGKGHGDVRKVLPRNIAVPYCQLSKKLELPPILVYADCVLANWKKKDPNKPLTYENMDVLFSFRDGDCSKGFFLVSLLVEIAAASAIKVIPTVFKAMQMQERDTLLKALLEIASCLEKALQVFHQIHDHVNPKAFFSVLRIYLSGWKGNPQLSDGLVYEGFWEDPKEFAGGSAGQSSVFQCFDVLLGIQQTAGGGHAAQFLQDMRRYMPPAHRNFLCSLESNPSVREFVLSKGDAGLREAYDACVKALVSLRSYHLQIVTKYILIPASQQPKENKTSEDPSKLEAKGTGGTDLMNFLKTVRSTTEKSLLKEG

In the case of `CC(C)CN(Cc1ccccc1)c1cc(NC(=O)c2ccc(F)c(F)c2)cc(-c2ccccc2-c2nnn[nH]2)n1` [Example 236, N-(2-(2-(1H-tetrazol-5-yl)phenyl)-6-difluorobenzamide (benzyl(isobutyl)amino)pyridin-4-yl)-3,4-], the IC50 is 687 nM. For the molecule `CC(C)CN(Cc1ccccc1)c1cc(NC(=O)Nc2ccc(F)cc2F)cc(-c2ccccc2-c2nnn[nH]2)n1` [Example 237, 1-(2-(2-(1H-tetrazol-5-yl)phenyl)-6-(benzyl(isobutyl)amino)pyridin-4-yl)-3-(2,4-difluorophenyl)urea], the IC50 came out at 131 nM. Turning to `CC(C)CN(Cc1ccccc1)c1cc(NC(=O)Nc2ccc(Cl)cc2Cl)cc(-c2ccccc2-c2nnn[nH]2)n1` [Example 238, 1-(2-(2-(1H-tetrazol-5-yl)phenyl)-6-(benzyl(isobutyl)amino)pyridin-4-yl)-3-(2,4-dichlorophenyl)urea], the IC50 was found to be 26.3 nM. In the case of `CC(C)CN(Cc1ccccc1)c1cc(NC(=O)Nc2ccc(OC(F)(F)F)cc2)cc(-c2ccccc2-c2nnn[nH]2)n1` [Example 239, 1-(2-(2-(1H-tetrazol-5-yl)phenyl)-6-(benzyl(isobutyl)amino)pyridin-4-yl)-3-(4-(trifluoromethoxy)phenyl)urea], the IC50 was found to be 566 nM. As to `Cc1ccc(NC(=O)Nc2cc(-c3ccccc3-c3nnn[nH]3)nc(N(Cc3ccccc3)CC(C)C)c2)cc1` [Example 240, 1-(2-(2-(1H-tetrazol-5-yl)phenyl)-6-(benzyl(isobutyl)amino)pyridin-4-yl)-3-(p-tolyl)urea], the IC50 was found to be 11.9 nM.

For `CCC(CC(=O)O)c1cc(Nc2ccc(Cl)cc2)cc(N(Cc2ccccc2)C(C)C)n1` (centres unmarked) [Example 241, 3-(6-(benzyl(isopropyl)amino)-4-((4-chlorophenyl)amino)pyridin-2-yl)pentanoic acid], the half-maximal inhibitory concentration (IC50) amounted to 21.3 nM. In the case of `CCC(CC(=O)O)c1cc(Nc2ccc3nc(C)sc3c2)cc(N(Cc2ccccc2)C(C)C)n1` (centres unmarked) [Example 242, 3-(6-(benzyl(isopropyl)amino)-4-((2-methylbenzo[d]thiazol-6-yl)amino)pyridin-2-yl)pentanoic acid], the IC50 worked out at 971 nM. For the molecule `CC(C)CN(CC(C)C)c1cc(NC(=O)Nc2ccccc2F)cc(-c2cc(F)ccc2C(=O)O)n1` [Example 251, 2-(6-(diisobutylamino)-4-(3-(2-fluorophenyl)ureido)pyridin-2-yl)-4-fluorobenzoic acid], the IC50 amounted to 2000 nM.

With `CC(C)CN(CC(C)C)c1cc(NC(=O)Nc2ccccc2F)cc(-c2ccccc2C(=O)O)n1` [Example 252, 2-(6-(diisobutylamino)-4-(3-(2-fluorophenyl)ureido)pyridin-2-yl)benzoic acid], the IC50 came to 972 nM. Regarding `CC(C)CN(CC(C)C)c1cc(NC(=O)Nc2ccccc2F)cc(-c2ccccc2-c2nnn[nH]2)n1` [Example 253, 1-(2-(2-(1H-tetrazol-5-yl)phenyl)-6-(diisobutylamino)pyridin-4-yl)-3-(2-fluorophenyl)urea], the IC50 came to 972 nM.

As to `Cc1ccc(NC(=O)Nc2cc(-c3ccccc3C(=O)O)nc(N(CC(C)C)CC(C)C)c2)cc1` [Example 254, 2-(6-(diisobutylamino)-4-(3-(p-tolyl)ureido)pyridin-2-yl)benzoic acid], the IC50 came out at 1080 nM. With `CCCN(c1cc(NC(=O)Nc2ccc(C)cc2)cc(-c2cc(F)ccc2C(=O)O)n1)C1CCCCC1` [Example 256], the IC50 was 980 nM. The same measure for `CCCN(c1cc(NC(=O)Nc2ccc(C)cc2)cc(-c2ccccc2C(=O)O)n1)C1CCCCC1` [Example 257, 2-(6-(cyclohexyl(propyl)amino)-4-(3-(p-tolyl)ureido)pyridin-2-yl)benzoic acid]: 1890 nM; for `CCCN(c1cc(NC(=O)Nc2ccc(C)cc2)cc(-c2ccccc2-c2nnn[nH]2)n1)C1CCCCC1` [Example 258, 1-(2-(2-(1H-tetrazol-5-yl)phenyl)-6-(cyclohexyl(propyl)amino)pyridin-4-yl)-3-(p-tolyl)urea]: 411 nM; for `CCCN(Cc1ccccc1)c1cc(NC(=O)Nc2ccc(C)cc2)cc(-c2ccccc2-c2nnn[nH]2)n1` [Example 260, 1-(2-(2-(1H-tetrazol-5-yl)phenyl)-6-(benzyl(propyl)amino)pyridin-4-yl)-3-(p-tolyl)urea]: 9.9 nM. With `CCCN(Cc1ccccc1)c1cc(NC(=O)Nc2ccccc2F)cc(-c2cc(F)ccc2C(=O)O)n1` [Example 261, 2-(6-(benzyl(propyl)amino)-4-(3-(2-fluorophenyl)ureido)pyridin-2-yl)-4-fluorobenzoic acid], the IC50 was found to be 1640 nM. Turning to `CCCN(Cc1ccccc1)c1cc(NC(=O)Nc2ccccc2F)cc(-c2ccccc2-c2nnn[nH]2)n1` [Example 262, 1-(2-(2-(1H-tetrazol-5-yl)phenyl)-6-(benzyl(propyl)amino)pyridin-4-yl)-3-(2-fluorophenyl)urea], the IC50 turned out to be 105 nM. With `CCCN(Cc1ccccc1)c1cc(NC(=O)Nc2cc(C)cc(C)c2)cc(-c2ccccc2-c2nnn[nH]2)n1` [Example 263, 1-(2-(2-(1H-tetrazol-5-yl)phenyl)-6-(benzyl(propyl)amino)pyridin-4-yl)-3-(3,5-dimethylphenyl)urea], the IC50 was found to be 145 nM.

As to `CCCCNC(=O)Nc1cc(-c2ccccc2-c2nnn[nH]2)nc(N(CCC)Cc2ccccc2)c1` [Example 264, 1-(2-(2-(1H-tetrazol-5-yl)phenyl)-6-(benzyl(propyl)amino)pyridin-4-yl)-3-butylurea], the IC50 turned out to be 1800 nM. The same measure for `CCCN(Cc1ccccc1)c1cc(NC(=O)Nc2ccc(C(F)(F)F)cc2F)cc(-c2ccccc2-c2nnn[nH]2)n1` [Example 265, 1-(2-(2-(1H-tetrazol-5-yl)phenyl)-6-(benzyl(propyl)amino)pyridin-4-yl)-3-(2-fluoro-4-(trifluoromethyl)phenyl)urea]: 43.3 nM; for `CCCN(Cc1ccccc1)c1cc(NC(=O)Nc2cc(C)no2)cc(-c2ccccc2-c2nnn[nH]2)n1` [Example 266, 1-(2-(2-(1H-tetrazol-5-yl)phenyl)-6-(benzyl(propyl)amino)pyridin-4-yl)-3-(3-methylisoxazol-5-yl)urea]: 2700 nM; for `CCCN(Cc1ccccc1)c1cc(NC(=O)Nc2ccc(C)nc2)cc(-c2ccccc2-c2nnn[nH]2)n1` [Example 267, 1-(2-(2-(1H-tetrazol-5-yl)phenyl)-6-(benzyl(propyl)amino)pyridin-4-yl)-3-(6-methylpyridin-3-yl)urea]: 1360 nM. As for `CCCN(Cc1ccccc1)c1cc(NC(=O)Nc2ccc(OC(F)(F)F)cc2)cc(-c2ccccc2-c2nnn[nH]2)n1` [Example 268, 1-(2-(2-(1H-tetrazol-5-yl)phenyl)-6-(benzyl(propyl)amino)pyridin-4-yl)-3-(4-(trifluoromethoxy)phenyl)urea], the figure is 30.2 nM; as for `CCCN(Cc1ccccc1)c1cc(NC(=O)Nc2ccc(OC(F)F)cc2)cc(-c2ccccc2-c2nnn[nH]2)n1` [Example 271, 1-(2-(2-(1H-tetrazol-5-yl)phenyl)-6-(benzyl(propyl)amino)pyridin-4-yl)-3-(4-(difluoromethoxy)phenyl)urea], 46.3 nM. For `O=C(Nc1ccc(OC(F)(F)F)cc1)Nc1cc(-c2ccccc2-c2nnn[nH]2)nc(N(Cc2ccccc2)Cc2ccccc2)c1` [Example 273, 1-(2-(2-(1H-Tetrazol-5-yl)phenyl)-6-(dibenzylamino)pyridin-4-yl)-3-(4-(trifluoromethoxy)-phenyl)urea], the IC50 came out at 609 nM.

Take `CCN(Cc1ccccc1)c1cc(NC(=O)Nc2ccc(C)cc2)cc(-c2ccccc2-c2nnn[nH]2)n1` [Example 274, 1-(2-(2-(1H-Tetrazol-5-yl)phenyl)-6-(benzyl(ethyl)amino)pyridin-4-yl)-3-(p-tolyl)urea]: the IC50 turned out to be 26.8 nM. As to `CCN(Cc1ccccc1)c1cc(NC(=O)Nc2ccc(Cl)cc2F)cc(-c2ccccc2-c2nnn[nH]2)n1` [Example 275], the IC50 stood at 26.6 nM. Consider `CCN(Cc1ccccc1)c1cc(NC(=O)Nc2ccc(C(F)(F)F)cc2)cc(-c2ccccc2-c2nnn[nH]2)n1` [Example 276], for which the IC50 turned out to be 148 nM. `CCN(Cc1ccccc1)c1cc(NC(=O)Nc2ccc(OC(F)(F)F)cc2)cc(-c2ccccc2-c2nnn[nH]2)n1` [Example 277]: the IC50 came to 782 nM. For `CCN(Cc1ccccc1)c1cc(NC(=O)Nc2ccc3c(c2)OCO3)cc(-c2ccccc2-c2nnn[nH]2)n1` [Example 278], the IC50 came out at 478 nM. As for `CCOc1ccc(NC(=O)Nc2cc(-c3ccccc3-c3nnn[nH]3)nc(N(CC)Cc3ccccc3)c2)cc1` [Example 279], the IC50 worked out at 537 nM.

As for `CCN(Cc1ccccc1)c1cc(NC(=O)Nc2ccc(OC(F)F)cc2)cc(-c2ccccc2-c2nnn[nH]2)n1` [Example 280], the IC50 came out at 554 nM. With `CCN(Cc1ccccc1)c1cc(NC(=O)Nc2ccc(Cl)cc2Cl)cc(-c2ccccc2-c2nnn[nH]2)n1` [Example 281], the half-inhibitory concentration (IC50) came to 13.7 nM.

As to `CCN(Cc1ccccc1)c1cc(NC(=O)Cc2ccc(C#N)cc2)cc(-c2ccccc2-c2nnn[nH]2)n1` [Example 282, N-(2-(2-(1H-Tetrazol-5-yl)phenyl)-6-(benzyl(ethyl)amino)pyridin-4-yl)-2-(4-cyanophenyl)acetamide], the IC50 was found to be 1580 nM. As for `CCN(Cc1ccccc1)c1cc(NC(=O)Cc2cc(C)no2)cc(-c2ccccc2-c2nnn[nH]2)n1` [Example 283], the figure is 1150 nM; as for `CCN(Cc1ccccc1)c1cc(NC(=O)Cc2cccnc2)cc(-c2ccccc2-c2nnn[nH]2)n1` [Example 284], 1620 nM. For the molecule `CCN(Cc1ccccc1)c1cc(NC(=O)Cc2ccc(C)nc2)cc(-c2ccccc2-c2nnn[nH]2)n1` [Example 285], the concentration for half-maximal inhibition (IC50) worked out at 2330 nM. Consider `Cc1ccc(NC(=O)Nc2cc(-c3ccccc3-c3nnn[nH]3)nc(N(CC(C)C)C3CCCCC3)c2)cc1` [Example 286, 1-(2-(2-(1H-Tetrazol-5-yl)phenyl)-6-(cyclohexyl(isobutyl)amino)pyridin-4-yl)-3-(p-tolyl)urea], for which the IC50 stood at 365 nM.
